Residue numbers refer to the chain shown, from its start.
B1: Lys27 on I-FABP with danzyl aziridine: Lys27 on I-FABP with danzyl aziridine has been derivatized (conjugate, UniProt P02693 2-132, looked up)
Fatty acid-binding protein, …: AFDGTWKVDRNENYEKFMEKMGINVVKRKLGAHDNLKLTITQEGNKFTVKESSNFRNIDVVFELGVDFAYSLADGTELTGTWTMEGNKLVGKFKRVDNGKELIAVREISGNELIQTYTYEGVEAKRIFKKE
modifications: dansyl aziridine label at Lys27
notes: Lys27 on I-FABP with danzyl aziridine has been derivatized
B2: Cys27 mutant of I-FABP with acrylodan: Cys27 mutant of I-FABP (Lys27 to Cys27) with acrylodan (conjugate, UniProt P02693 2-132, looked up, variant K27C)
Fatty acid-binding protein, …: B1 Fatty acid-binding protein, … with K27C
modifications: acrylodan label
B3: Native A-FABP labeled with acrylodan: Native A-FABP which contains two cysteines, was labeled with acrylodan (conjugate, UniProt P15090 2-132, looked up)
Fatty acid-binding protein, …: CDAFVGTWKLVSSENFDDYMKEVGVGFATRKVAGMAKPNMIISVNGDVITIKSESTFKNTEISFILGQEFDEVTADDRKVKSTITLDGGVLVHVQKWDGKSTTIKRKREDDKLVVECVMKGVTSTRVYERA
modifications: acrylodan label
B4: Native A-FABP labeled with NBD: Native A-FABP labeled with the N-[7-(4-nitrobenzo-2-oxa-1,3-diazol) (NBD) moieties (conjugate, UniProt P15090 2-132, looked up)
Fatty acid-binding protein, …: B3 Fatty acid-binding protein, …
modifications: NBD label
notes: Native A-FABP labeled with the N-[7-(4-nitrobenzo-2-oxa-1,3-diazol) (NBD) moieties

Columns and labels:
[1] = biological target: ADIFAB (Acrylodan derivatized native rat I-FABP, Lys27) (Rattus norvegicus, UniProt P02693); assay: biochemical; format: binding; details: for rank of Kd, in words: among the long chain FA of Table I
Experimental: In most of the studies FFA was added to ADIFAB, in a buffer (A) consisting of 10 Mm HEPES, 150 Mm NaCI, 5 mM KCI, and 1 mM NaHPO4 at pH 7.4, as the sodium salt of the fatty acid. […] FA bind to most surfaces and values of the total FA concentration ([FAT]) were corrected for FA binding to cuvette and container walls. This binding was determined using trace amounts of […] labeled FA and, separately, ADIFAB florescence to determine the degree of FA loss upon transfer from one container to another. […] To minimize FA binding to surfaces, the monomer concentrations of stock solutions of the Na salts were maintained at pH >9.0 in water, and were warmed to >37° C. just prior to use. The polyunsaturated forms of the FA are subject to oxidation and it was observed that dissociation constants for binding to ADIFAB (Kd) were considerably greater for the oxidized FA. Care was taken to reduce the exposure of the FA salts to oxygen (all handling was carried out under Argon) and to store them at -20° C.
The concentrations of FA in the aqueous phase (FFA) and FA bound to ADIFAB ([FAb ]) were determined from the ratio of fluorescence emission intensities at 432 and 505 nm (R). The values FFA and [FAb ]were related to the ratio of intensities essentially by the method of Grynkiewicz et. al. (Grynkiewicz, G., Poenie, M., & Tsien, R. Y. (1985) J. Biol. Chem. 260, 3440-3450), according to which:
[FAb ]=[ADIFABtotal ]Q(fr)/(1-fr+FRQ) FR
are the ADIFAB intensities with zero and saturating concentrations of FFA, Ro is the intensity ratio in the absence of FFA and Rmax is the value when ADIFAB is saturated.
Because of the limiting solubility of long chain FA in aqueous solution Rmax and Q cannot. in general, be determined directly. To determine Rmax and Q, ADIFAB was titrated with lauric acid (12:0) whose high CMC allowed maximum R values (~10-11) to be measured that were considerably greater than with longer chain FA. From this titration a linear correlation was found between Q and R. Using Q, R pairs predicted by this relationship, a two parameter (Kd and Rmax) least squares analysis of each FA was done using the equation for equilibrium binding;
1/[FAb ]=(Kd/[ADIFAB])/FFA+1/[ADIFAB] (3)
Optimal Q and Rmax values obtained in this analysis were in the range 17-22 and 10 and 13, respectively, with average values of 19.5 and 11.5. Final Kd values for each FA were then determined by least squares analysis of equation (3) with Q and Rmax fixed at 19.5 and 11.5, respectively.
Fluorescence measurements to monitor Acrylodan fluorescence in various solvents, to monitor adduct formation, and to obtain complete spectra were carried out using an SLM 8000C fluorometer. Measurements of the 505/432 intensity ratios (R values) used to monitor the FFA titrations of ADIFAB were done with either the SLM 8000C or a Perkin-Elmer MPF-2A fluorometer.
ADIFAB dose response to FFA and FFA aggregate formation was measured. The ratio of fluorescent intensities at emission wavelengths of 505/432 nm were measured as a function of added Na salts of several FFA. Resulting data are depicted graphically in FIGS. 6A, 6B and 6C. Conditions were similar to those used in FIG. 3 except that 100mM EGTA was used in obtaining the data depicted in FIGS. 6A and 6B, while the data depicted in FIG. 6C was obtained using 1 mM CaCl2. Measured R values were used to determine FFA and [FFAb]using equations (1) and (2). The solid curves through the data of FIGS. 6A and 6C represent best fits of equation (3) obtained using a non-linear least squares algorithm. Aggregate formation was detected by measuring 90° light scattering from FFA in the buffer of FIG. 3 containing no added calcium and titrated with the Na salts of the FFA as described above, see FIG. 6B. The smoothed curves through the data, intended to guide-the-eye, indicate that aggregate formation, as detected by a sharp increase in light scattering, is approximately coincident with the maximum R value observed in the experiment related to FIG. 6A. […]

[2] = biological target: T1, I-FABP (native, rat intestinal) (Rattus norvegicus, UniProt P02693); assay: Tryptophan fluorescence of native I-FABP on addition of FFA; format: binding; details: as much as
T1 construct: made in house; host or cells: E. coli BL21 (pET11D)
T1 sequence (P02693 1-132): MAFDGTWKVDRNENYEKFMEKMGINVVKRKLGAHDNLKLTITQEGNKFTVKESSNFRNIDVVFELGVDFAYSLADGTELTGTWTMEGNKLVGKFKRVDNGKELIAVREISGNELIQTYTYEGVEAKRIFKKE
Experimental: In early work, cloning was carried out using a cDNA library from neo-natal rat intestine purchased from STRATAGENE (11099 North Torrey Pines Rd., La Jolla, CA 92037). The library is carried by the LAMBDA ZAP II vector and was used with the E. coil host strain XL 1Blue which is supplied with the library. The recombinant clone was identified with an oligonucleotide probe based upon the published sequence of the I-FABP DNA (Lowe, J. B., Sacchettini, J. C., Laposata, M., McQuillan, J. J. and Gordon, J. I. J. Biol. Chem. 262:5931, 1987) and sequencing of 5and 3regions was used to verify the identity and completeness of the gene. […] The I-FABP gene was removed from the lambda Zap vector and inserted into a PET expression vector (PET11 D) purchased from Novagen and the protein was expressed using the E. coil strains (BL2 1) also from Novagen (Madison, WI, USA). I-FABP is isolated from E. coil and purified as described, Lowe, J. B., Sacchettini, J. C., Laposata, M., McQuillan, J. J. and Gordon, J. I. J. Biol. Chem. 262:5931, 1987. In this procedure cells, after a 3-hour culture, are lysed, centrifuged to remove cell debris and the pellet frozen at -70 °C. The frozen pellet was allowed to thaw in the presence of a lysing buffer composed of 50mM Tris, 0.5mM EDTA, 0.5mM PMSF, 0.1% Triton X100, at pH 8.0. This was centrifuged at 20,000 g. for 45 minutes and the pellet was discarded. The lysate was then subjected to two rounds (50% and 70%) of ammonium sulfate precipitation and the supernatant from the 70% material was desalted and concentrated using an Amicon ultrafiltration apparatus with a YM10 filter. The flitrate was then subjected to DEAE-Sephadex (A50), followed by Sephadex G-75 chromatography and the low molecular weight fractions were saved. This material gives a single band on 12% PAGE and an amino acid analysis of this material was consistent with the amino acid sequence of I-FABP. […] The addition of FFA (oleate, stearate, or palmitate) reduced the tryptophan fluorescence of the native protein by as much as 40%.

[3] = Fluorescence response of fluorescent-FABP probes to fatty acid binding; format: biochemical
Source text: Principles and exemplary methods for constructing probes as described and defined herein and methods for determining FFA levels are described in detail below. Using these principles fourteen different fluorescent-FABP derivatives have been constructed. This has been done using 3 different native FABPs (rat intestine (I-FABP), human adipocyte (A-FABP), and human heart (H-FABP)) plus 4 site-specific mutants of two of these (I-FABP, (Thr83Cys83, Thr81Cys81, Lys27Cys27 and H-FABP, Thr27Lys27), and these proteins have been derivatized with 4 different fluorophores (acrylodan, danzyl aziridine, 4-[N-[(2-iodoacetoxy)ethyl]-N-methylamino]-7-nitrobenz-2-oxa1,3-diazole ester (IANBDE), 4-[N-[(2-iodoacetoxy)ethyl]-N-methylamino]-7-nitrobenz-2-oxa-1,3-diazole these derivatives can serve as FFA probes, to some degree. To date, however, ADIFAB remains the one that has optimal properties for current applications. Obviously, by occupying, partially, the binding site with a fluorophore, FA must compete for its site and therefore the FA binding constant for the FABP may be altered from the native protein. This is indeed the case for ADIFAB for which the Kd is about 10 fold greater than for the native protein. So long as FA can bind, however, the derivatized molecule can still function as a FFA probe and so long as the probe's dynamic range is sufficient (as it is for ADIFAB, IANBDE and IANBDA) then FFA levels over a wide range, including those that are physiologic, can be measured.
The Cys27 mutant of I-FABP (Lys27 to Cys27) with acrylodan, IANBDE and IANBDA have also been labeled using the technique described. […] This is the behavior predicted from the construction principles set forth herein, and reflects the shorter tethering arm to Cys27 as compared to Lys27 which prevents the deeper insertion into the binding site that is observed in the Lys27 derivative. […] Thus, those skilled in the art can with considerable confidence predict whether protein modifications and/or choice of label will result in a FFA responsive probe.
Site-directed mutagenesis was used to introduce a cysteine residue at positions 82 or 84, in place of the threonine residues that are normally at this position. Mutagenesis was carried out by annealing a synthetic prirner with a single mismatched base to the above derived expression vector. The primer was extended and ligated in vitro, and the resulting heteroduplex was used to transfect the host strain. The transfected host was screened for the mutated DNA by hybridization with the mutating oligonucleotide. Mutated plasmid DNA was isolated, retransformed into the host strain, and its structure confirmed by sequencing the recombinant DNA in regions defined by probes flanking the mutated region. This modified protein was expressed in the same system and purified by the same methods as for the native protein. Typical yields of purified protein were approximately 50 mg/liter cell culture. The mutated I-FABP protein was fluorescently derivatized by inserting a fluorescent group (which reacts specifically with free SH groups) at the newly created cysteine residue. The cysteine residue was inserted at positions 82 (replacing a threonine residue) and/or at residue 84 (also a threonine residue) since both these positions face outward from the FFA binding pocket but are in close proximity to the tryptophan at position 83 (about 3.5Å lateral separation along the b strand and about 10Å vertical separation between the centers of the tryptophan and fluorescent residues). […] Thus, either the direct emission of the fluorescent group and/or the rate of resonance energy transfer between Trp83 and the fluorescent group was postulated to change. In a non-limiting prior specific example, the dansyl derivative ACRYLODAN®(6-acryloly-2dimethylamenonaphthalene) was used to modify the mutated FABP and this probe was designated FAD508.
ADIFAB dose response to FFA and FFA aggregate formation was measured. […]

[4] = FA-ADIFAB Dissociation Constants, Kd, no added calcium, FIG. 6A, buffer A pH 7.4

| Molecule | reduction of the tryptophan fluorescence of the native protein [2] [%] | responsiveness of the probe to FA binding, in words [3] | further results |
| --- | --- | --- | --- |
| CCCCCCCC/C=C\CCCCCCCC(=O)O [OLEATE, oleate] | ≤ 40 |  | Kd [1, 4]: 280 ± 10 nM; Kd ([1]; Kd in the presence of calcium, 1 mM calcium): 310 nM; rank of Kd, in words [1]: smallest Kds |
| CCCCCCCCCCCCCCCC(=O)O [PALMITATE, palmitate] | ≤ 40 |  | Kd [1, 4]: 320 ± 10 nM; rank of Kd, in words [1]: smallest Kds; Kd relative to oleate (fold greater than oleate) ([1]; normalized to oleate): about 1.1 fold |
| CCCCCCCCCCCCCCCCCC(=O)O [stearate] | ≤ 40 |  |  |
| B1 |  | exhibits an increase in 450 nm fluorescence upon FA binding |  |
| B2 |  | the relative change upon FA binding is smaller than for ADIFAB |  |
| B3 |  | only poorly responsive |  |
| B4 |  | only poorly responsive |  |

Source: patent US5470714A, “One-step free fatty acid determination method” (Lidak Pharmaceuticals, priority 1993, dated 1995)
